# Measurements published in PMC10985088, “Synthesis and biological evaluation of echinomycin analogues as potential colon cancer agent” (Scientific Reports, 2024).
# How the values were obtained:
# SW620 cells = experiment: WST-8 cytotoxicity assay, SW620; details: read-out: IC50 SW620; human colon cancer cell, 72 h, mean ± SE (n = 3)
# Description: (§1) With a range of chromophore analogues in hand, their toxicity to SW620 cells was investigated by WST assays.
# (§2) Basically, the evaluation was performed using methods previously reported by our group[20],[23]. Cytotoxic activities of compounds against MIA PaCa-2 (American Type Culture Collection), SW620 (European Collection of Authenticated Cell Cultures) were measured by WST-8 assay according to manufacturer’s protocol. Briefly, cells (1 × 10^4 cells/well) in a 96-well plate were cultured in medium (for MIA PaCa-2, D-MEM (Wako, Japan) containing 10% fetal bovine serum (Funakoshi, Japan), 100 units/mL penicillin G and 100 µg/mL streptomycin (Wako, Japan), for SW620, RPMI-1640 (Wako, Japan) containing 10% fetal bovine serum, 100 units/mL penicillin G and 100 µg/mL streptomycin) were cultured at 37 °C for 24 h under 5% CO2 atmosphere. Then, cells were treated with test compounds (final DMSO concentration was 1%) at 37 °C for 72 h under 5% CO2 atmosphere. Then, cells were treated with a solution of Cell Counting Kit-8® (Dojindo, Japan) for 3 h. After that, cell viabilities were determined based on the measurement of absorption at 450 nm of the wells by using TECAN Infinite® M200 microplate reader. The results were expressed as a percentage of the negative control (cells treated with DMSO only), and that value was fixed at 100%.
# [1] = test system: HIF-1α-mediated transcription; experiment: HRE reporter gene assay in SW620 cells overexpressing HIF-1α; assay type: cell-based, human; details: SW620 transiently overexpressing HIF-1α, 16 h
# Excerpt: Echinomycin is known to inhibit the HIF-1 pathway by inhibiting the binding of HIF-1α to HRE[15],[21],[22]. The ability of 3 to inhibit HIF-1α-mediated transcription was investigated by using an HRE reporter gene assay in SW620 cells transiently overexpressing HIF-1α.
# Figure 5 Effect of echinomycin (1), 2 and 3 on HIF-1α-dependent transcription in SW620 cells. SW620 cells were transiently transfected with empty vector pCI-neo-3 × FLAG or HIF-1α expression vector pCI-neo-3 × FLAG-HIF-1α, together with pGL3-5 × HRE-Luc and pGL4.75 [hRluc/CMV]. One day after transfection, echinomycin (1), 2, or 3 was added to the cell culture media and incubated for an additional 16 h. The cells were lysed, and a dual luciferase assay was performed. Firefly luciferase activity was normalized to Renilla luciferase activity, and the data are presented as fold induction relative to the values obtained in cells DMSO-treated cells transfected with empty vector. The error bars represent standard deviations (n = 3). *P < 0.05 and **P < 0.01 compared to DMSO-treated cells transfected with HIF-1α (Student’s test).
# Basically, the assay was performed using methods previously reported by our group. […]
# MIA PaCa-2 cells = details: read-out: IC50 MIA PaCa-2; human pancreatic carcinoma cell, 72 h, mean ± SE (n = 3)
# Description: as §1, §2
# [2] = Serum biochemistry / blood examination of treated mice; assay type: in vivo; details: 0.4 µg/mouse i.p., Day 14
# Description: Toxicity Body weight change is an indicator of systemic toxicity. Accordingly, the body weights of mice intraperitoneally treated with different doses (0.04 and 0.4 µg/mouse) of either 1 or 3 were measured (Fig. S1). […] A blood hematological examination (including nineteen parameters) was also conducted on these mice on Day 14 (Fig. S2). There were no significant changes in almost any of the parameters in the mice treated with either 1 or 3 at doses of 0.04 or 0.4 µg/mouse.
# Male BALB/c mice (7 weeks old) were purchased from Charles River Laboratories Japan, Inc. Each compound was intraperitoneally injected daily for 14 days. […] Serum was collected by centrifuging blood at 5000 rpm for 10 min. Biochemistry was performed in Oriental Yeast Co., Ltd, Japan.
smiles,measurement,setting,value
"CS[C@H]1SC[C@H]2C(=O)N(C)[C@@H](C(C)C)C(=O)OC[C@@H](NC(=O)c3cnc4ccccc4n3)C(=O)N[C@@H](C)C(=O)N(C)[C@@H]1C(=O)N(C)[C@@H](C(C)C)C(=O)OC[C@@H](NC(=O)c1cnc3ccccc3n1)C(=O)N[C@@H](C)C(=O)N2C [Compound 1, Echinomycin]",IC50,SW620 cells,2.5 ± 0.8 nM
same,HIF-1α-induced HRE reporter activity,[1],inhibited
same,IC50,MIA PaCa-2 cells,0.75 ± 0.02 nM
same,alanine aminotransferase (ALT),[2],increase
same,aspartate aminotransferase (AST),[2],increase
same,lactate dehydrogenase (LDH),[2],increase
same,total bilirubin (T-BIL),[2],decrease
